The compounds below were run against T1, human A2a receptor (Homo sapiens, UniProt P29274) (assay: A2a receptor competition binding assay using Scintillation Proximity technology). Settings: membranes from HEK293 cells expressing human A2a receptor; 0.5 nM tritiated radioligand; SPA beads; 1 h room temperature.
T1 construct: purchased Perkin-Elmer RBHA2AM400UA; host or cells: HEK293 cell membranes
Experimental: Binding affinities of compounds of the invention for the human A2a receptor were determined in a competition binding assay using Scintillation Proximity technology. Thus, 0.3 μg of membranes from HEK293 cells expressing the human A2a receptor were incubated with a compound of the invention at concentrations ranging from 3000 nM to 0.15 nM in a reaction mixture containing also 0.5 nM of a tritiated form of 5-amino-7-[2-phenethyl]-2-(furan-2-yl)-7H-pyrazolo[4,3-e][1,2,4]triazolo[1,5-c]pyrimidine (the tritiated compound) and 100 μg of wheat germ agglutin-coated yttrium silicate SPA beads for one hour at room temperature with agitation. The beads were then allowed to settle to the bottom of the wells for 1 hr, after which the membrane-associated radioactivity was determined by scintillation counting in a TopCount microplate reader. Ki values were determined using the Cheng-Prusoff equation.
Summary of Materials and Methods Used in A2a Activity Determination:
HEK293 cells expressing the human, rat, dog or monkey adenosine 2a receptor (Purchased from Perkin-Elmer # RBHA2AM400UA).
The Tritiated compound was prepared in-house by MRL Radiochemistry according to published methods.
Wheat germ agglutinin-coated yttrium silicate SPA beads (GE Healthcare#RPNQ0023). Dilute to 25 mg/ml in assay buffer.
Assay Buffer was prepared in house: Dulbecco's calcium and magnesium free phosphate buffered saline+10 mM MgCl2
Adenosine deaminase from calf intestine, 10 mg/2 ml (Roche) 10 102 105 001).
A2a antagonist standard (9-chloro-1-(2-furanyl)-[1,2,4]triazolo1,5-c]quinazolin-5-amine from Tocris Bioscience)
Make eight 1:3 serial dilutions in 100% DMSO from a 3 mM compound stock
Transfer 50 nl of compound into a 384-well OptiPlate (Perkin Elmer).
Typically, final concentrations of compound used in the assay ranged from 3000 nM to 0.152 nM.
Dilute a solution of the Tritiated compound to 1.25 nM in assay buffer. This is a 2.5× solution. The final concentration in the assay is 0.5 nM. Calculate the concentration by counting two 5 μl aliquots.
Use 0.25 ug of membrane/well. Dilute membranes to 9.7 μg/ml in assay buffer. Treat with 20 ug/ml adenosine deaminase (ADA) for 15 minutes at room temperature to degrade endogenous adenosine.
Use 100 μg/well wheat germ agglutinin-coated yttrium silicate SPA beads.
Mix ADA-treated membranes and SPA beads together for 30 min prior to assay.
To the Perkin-Elmer Optiplate-384 containing the compound titration add 20 μl of 2.5× solution of the Tritiated compound and 30 μl of the membrane-bead mixture. Incubate for one hour at room temperature with agitation.
Include total binding (assay buffer+1% DMSO) and non-specific binding (CGS15943, 1 μM) wells.
Allow the beads to settle for one hour.
A curve fitting program (i.e., Prism, Activity Base, Chemcart) is used to determine the EC50. The Ki value is calculated using the Cheng-Prusoff equation: K i=EC50/(1+(radioligand concentration/Kd)).

T1 sequence (P29274 whole entry): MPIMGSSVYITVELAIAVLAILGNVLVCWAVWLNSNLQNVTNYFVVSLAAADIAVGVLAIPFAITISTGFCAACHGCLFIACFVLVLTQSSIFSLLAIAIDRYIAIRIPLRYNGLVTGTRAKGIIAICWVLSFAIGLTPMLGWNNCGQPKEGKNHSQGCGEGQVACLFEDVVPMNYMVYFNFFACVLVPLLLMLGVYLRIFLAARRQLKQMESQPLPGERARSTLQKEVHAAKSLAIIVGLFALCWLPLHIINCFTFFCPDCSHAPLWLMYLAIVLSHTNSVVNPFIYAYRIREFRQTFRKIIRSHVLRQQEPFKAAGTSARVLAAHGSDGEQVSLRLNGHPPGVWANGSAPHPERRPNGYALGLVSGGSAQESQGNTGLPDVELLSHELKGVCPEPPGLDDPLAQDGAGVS

Row | EC50 | Compound
1 | 16 nM | COc1cccc2c1nc(N)n1nc(CN3CCc4ccccc4CC3)nc21 [Ex-131, 2-((4,5-dihydro-1H-benzo[d]azepin-3(2H)-yl)methyl)-7-methoxy-[1,2,4]triazolo[1,5-c]quinazolin-5-amine]
2 | 42.3 nM | Nc1nc2c(F)cccc2c2nc(CCN3Cc4cnc(C(F)(F)F)nc4C3)nn12 [Ex-88]
3 | 1.1 nM | COc1cccc2c1nc(N)n1nc(CCN3CCc4c(C5CC5)n[nH]c4C3)nc21 [Ex-40, 2-(2-(3-cyclopropyl-4,5-dihydro-1H-pyrazolo[3,4-c]pyridin-6(7H)-yl)ethyl)-7-methoxy-[1,2,4]triazolo[1,5-c]quinazolin-5-amine]
4 | 7.3 nM | COc1cccc2c1nc(N)n1nc(CCN3Cc4nc(C5CC5)sc4C3)nc21 [Ex-241, 2-(2-(2-cyclopropyl-4H-pyrrolo[3,4-d]thiazol-5(6H)-yl)ethyl)-7-methoxy-[1,2,4]triazolo[1,5-c]quinazolin-5-amine]
5 | 207 nM | COCc1cccc2c1nc(N)n1nc(CN3Cc4cccnc4C3)nc21 [Ex-198, 2-((5H-Pyrrolo[3,4-b]pyridin-6(7H)-yl)methyl)-7-(methoxymethyl)-[1,2,4]triazolo[1,5-c]quinazolin-5-amine]
6 | 55.2 nM | COc1cccc2c1nc(N)n1nc(C[C@H](C(F)F)N3Cc4cccnc4C3)nc21 [Ex-102]
7 | 1.5 nM | COc1cccc2c1nc(N)n1nc(CCN3Cc4nc(C)sc4C3)nc21 [Ex-14, 7-methoxy-2-(2-(2-methyl-4H-pyrrolo[3,4-d]thiazol-5(6H)-yl)ethyl)-[1,2,4]triazolo[1,5-c]quinazolin-5-amine]
8 | 5 nM | COc1cccc2c1nc(N)n1nc(CCN3Cc4ccc(N5CCC(N6CCOCC6)CC5)nc4C3)nc21 [Ex-72]
9 | 238 nM | COc1ccc2c(nc(N)n3nc(CCN4Cc5cccnc5C4)nc23)c1OC [Ex-97]
10 | 11.9 nM | CCC(Cc1nc2c3cccc(OC)c3nc(N)n2n1)N1Cc2cccnc2C1 (stereo not shown) [Ex-111]
11 | 1.6 nM | COc1cccc2c1nc(N)n1nc(CN3CCCCc4cccnc43)nc21 [Ex-157, 2-((7,8-dihydro-5H-pyrido[2,3-b]azepin-9(6H)-yl)methyl)-7-methoxy-[1,2,4]triazolo[1,5-c]quinazolin-5-amine]
12 | 7 nM | COc1cccc2c1nc(N)n1nc(CCN3Cc4ccc(N5CCOC(C)(C)C5)nc4C3)nc21 [Ex-68]
13 | 17.9 nM | COc1cccc2c1nc(N)n1nc(CC(N3Cc4cccnc4C3)C(F)(F)F)nc21 (stereo not shown) [Ex-108]
14 | 2.1 nM | COc1cccc2c1nc(N)n1nc(CN3CCCc4cccnc43)nc21 [Ex-161, 2-((3,4-dihydro-1,8-naphthyridin-1(2H)-yl)methyl)-7-methoxy-[1,2,4]triazolo[1,5-c]quinazolin-5-amine]
15 | 4.2 nM | COc1cccc2c1nc(N)n1nc(CCN3CCc4cc(F)ccc4C3)nc21 [Ex-44, 2-(2-(6-fluoro-3,4-dihydroisoquinolin-2(1H)-yl)ethyl)-7-methoxy-[1,2,4]triazolo[1,5-c]quinazolin-5-amine]
16 | 6.3 nM | Nc1nc2c(F)cccc2c2nc(CCN3CCCc4ccccc43)nn12 [Ex-84]
17 | 4.6 nM | CCOC(=O)c1nnc2n1CCN(CCc1nc3c4cccc(OC)c4nc(N)n3n1)C2 [Ex-4, ethyl 7-(2-(5-amino-7-methoxy-[1,2,4]triazolo[1,5-c]quinazolin-2-yl)ethyl)-5,6,7,8-tetrahydro-[1,2,4]triazolo[4,3-a]pyrazine-3-carboxylate]
18 | 6.9 nM | COc1cccc2c1nc(N)n1nc(CCN3Cc4ccc(N5CCOCC5)nc4C3)nc21 [Ex-64]
19 | 2.7 nM | COc1cccc2c1nc(N)n1nc(CCN3CCn4nc(C(F)(F)F)nc4C3)nc21 [Ex-11]
20 | 13.8 nM | COc1cccc2c1nc(N)n1nc(CC(=O)N3CCc4ccccc4CC3)nc21 [Ex-78]

Row | EC50 | Compound
21 | 1.7 nM | COc1cccc2c1nc(N)n1nc(CCN3Cc4nc(-c5ccccc5)[nH]c4C3)nc21 [Ex-34]
22 | 47.8 nM | COc1cccc2c1nc(N)n1nc(CN3Cc4nnc(C(F)(F)F)n4C(C)(C)C3)nc21 [Ex-145, 2-((5,5-dimethyl-3-(trifluoromethyl)-5,6-dihydro-[1,2,4]triazolo[4,3-a]pyrazin-7(8H)-yl)methyl)-7-methoxy-[1,2,4]triazolo[1,5-c]quinazolin-5-amine]
23 | 31.6 nM | COc1cccc2c1nc(N)n1nc(CN3CCc4cccc(CN5CCN(c6ccccn6)CC5)c4C3)nc21 [Ex-126, 7-methoxy-2-((8-((4-(pyridin-2-yl)piperazin-1-yl)methyl)-3,4-dihydroisoquinolin-2(1H)-yl)methyl)-[1,2,4]triazolo[1,5-c]quinazolin-5-amine]
24 | 0.9 nM | COc1cccc2c1nc(N)n1nc(CCN3CCc4sc(C)nc4C3)nc21 [Ex-25, 7-methoxy-2-(2-(2-methyl-6,7-dihydrothiazolo[4,5-c]pyridin-5(4H)-yl)ethyl)-[1,2,4]triazolo[1,5-c]quinazolin-5-amine]
25 | 1 nM | COc1cccc2c1nc(N)n1nc(CCN3Cc4nc(C5CC5)oc4C3)nc21 [Ex-245]
26 | 4.3 nM | CCN(CC)c1ccnc2c1CCN(CCc1nc3c4cccc(OC)c4nc(N)n3n1)C2 [Ex-74]
27 | 2 nM | COc1cccc2c1nc(N)n1nc(CN3CCCCc4ccccc43)nc21 [Ex-128, 7-methoxy-2-((2,3,4,5-tetrahydro-1H-benzo[b]azepin-1-yl)methyl)-[1,2,4]biazolo[1,5-c]quinazolin-5-amine]
28 | 0.2 nM | COc1cccc2c1nc(N)n1nc(C[C@@H](C)N3Cc4nc(C)oc4C3)nc21 [Ex-247, (R)-7-methoxy-2-(2-(2-methyl-4H-pyrrolo[3,4-d]oxazol-5(6H)-yl)propyl)-[1,2,4]triazolo[1,5-c]quinazolin-5-amine]
29 | 147 nM | Nc1nc2c(OCCF)cccc2c2nc(CN3CCc4cccnc4C3)nn12 [Ex-202]
30 | 1.1 nM | COc1cccc2c1nc(N)n1nc(CCN3CCc4nc(C5CC5)sc4C3)nc21 [Ex-30, 2-(2-(2-cyclopropyl-6,7-dihydrothiazolo[5,4-c]pyridin-5(4H)-yl)ethyl)-7-methoxy-[1,2,4]triazolo[1,5-c]quinazolin-5-amine]
31 | 11.8 nM | COc1cccc2c1nc(N)n1nc(CN3CCCc4ccncc43)nc21 [Ex-135, 2-((3,4-dihydro-1,7-naphthyridin-1(2H)-yl)methyl)-7-methoxy-[1,2,4]triazolo[1,5-c]quinazolin-5-amine]
32 | 2.9 nM | COc1cccc2c1nc(N)n1nc(CCN3CCc4ccc(-c5cnc(C(F)(F)F)nc5)cc4C3)nc21 [Ex-187, 7-methoxy-2-(2-(7-(2-(trifluoromethyl)pyrimidin-5-yl)-3,4-dihydroisoquinolin-2(1H)-yl)ethyl)-[1,2,4]triazolo[1,5-c]quinazolin-5-amine]
33 | 3.5 nM | COc1cccc2c1nc(N)n1nc(CCN3Cc4oc(C)nc4CC3C)nc21 (stereo not shown) [Ex-237, 2-(2-(2,6-dimethyl-6,7-dihydrooxazolo[5,4-c]pyridin-5(4H)-yl)ethyl)-7-methoxy-[1,2,4]triazolo[1,5-c]quinazolin-5-amine]
34 | 2 nM | COc1cccc2c1nc(N)n1nc(CCN3CCn4nc(C5CC5)nc4C3)nc21 [Ex-12, 2-(2-(2-cyclopropyl-5,6-dihydro-[1,2,4]triazolo[1,5-a]pyrazin-7(8H)-yl)ethyl)-7-methoxy-[1,2,4]triazolo[1,5-c]quinazolin-5-amine]
35 | 3.7 nM | COc1cccc2c1nc(N)n1nc(CCN3CCc4c(N5CCC(F)(F)C5)ccnc4C3)nc21 [Ex-76]
36 | 40.8 nM | COc1cccc2c1nc(N)n1nc(CN3CCc4ncc(C(F)(F)F)cc4C3)nc21 [Ex-129, 7-methoxy-2-((3-(trifluoromethyl)-7,8-dihydro-1,6-naphthyridin-6(5H)-yl)methyl)-[1,2,4]tria.zolo[1,5-c]quinazolin-5-amine]
37 | 6.7 nM | CCc1nnc2n1CCN(CCc1nc3c4cccc(OC)c4nc(N)n3n1)C2 [Ex-22, 2-(2-(3-ethyl-5,6-dihydro-[1,2,4]triazolo[4,3-a]pyrazin-7(8H)-yl)ethyl)-7-methoxy-[1,2,4]triazolo[1,5-c]quinazolin-5-amine]
38 | 0.8 nM | COc1cccc2c1nc(N)n1nc(CN3CCc4ccccc4C3)nc21 [Ex-121]
39 | 6.8 nM | COc1cccc2c1nc(N)n1nc(CCN3Cc4ccc(N5CCN(CC6CC6)CC5)nc4C3)nc21 [Ex-70]
40 | 16.6 nM | CCN1CCN(c2ccc3c(n2)CN(CCc2nc4c5cccc(OC)c5nc(N)n4n2)C3)CC1 [Ex-66]

— patent US10011615B2, “Heterobicyclo-substituted [1,2,4]triazolo[1,5-c]quinazolin-5-amine compounds with A2A anatagonist properties” (Merck Sharp & Dohme Corp., priority 2012, dated 2018)
